Test results published in ChEMBL document CHEMBL3217702, “Oxadiazole isomers: all bioisosteres are not created equal” (Medchemcomm, 2012).
Converted amounts (≈) assume the structure as drawn.

Columns and labels:
[1] = Hexadecane-phosphate buffer distribution coefficient, log P of the compound at pH 7.4; type: physicochemical
[2] = Intrinsic clearance in rat hepatocytes measured per 10^6 cells; type: ADME, cell-based, Hepatocyte; details: read-out: CLH
[3] = Intrinsic clearance in human microsomes; type: ADME, Microsome
[4] = Permeability from apical to basolateral side in human Caco2 cells; type: ADME, cell-based; details: Caco-2, read-out: permeability
[5] = Permeability from basolateral to apical side in human Caco2 cells; type: ADME, cell-based; details: Caco-2, read-out: permeability
[6] = Hydrolytic stability of the compound at 10 uM at pH 4 at 65 degC after 18 hrs in presence of 2-methoxyethanol; type: physicochemical; details: buffer, pH 4, 18 h
[7] = Hydrolytic stability of the compound at 10 uM at pH 6 at 65 degC after 18 hrs in presence of 2-methoxyethanol; type: physicochemical; details: buffer, pH 6, 18 h
[8] = Hydrolytic stability of the compound at 10 uM at pH 8 at 65 degC after 18 hrs in presence of 2-methoxyethanol; type: physicochemical; details: buffer, pH 8, 18 h
[9] = Half life at 10 uM at pH 4 at 65 degC; type: physicochemical; details: buffer
[10] = Half life at 10 uM at pH 6 at 65 degC; type: physicochemical; details: buffer
[11] = Half life at 10 uM at pH 8 at 65 degC; type: physicochemical; details: buffer
[12] = Half life at 10 uM at pH 4 at 25 degC; type: physicochemical; details: buffer
[13] = Half life at 10 uM at pH 6 at 25 degC; type: physicochemical; details: buffer
[14] = Half life at 10 uM at pH 8 at 25 degC; type: physicochemical; details: buffer
physchem [15] = details: octanol/aqueous phosphate buffer, pH 7.4
Description: Octanol-aqueous phosphate buffer distribution coefficient, log P of the compound at pH 7.4

[16] = Fraction unbound in human plasma; type: ADME, cell-free
[17] = Fraction unbound in mouse plasma; type: ADME, cell-free
[18] = Fraction unbound in rat plasma; type: ADME, cell-free
[19] = biological target: Voltage-gated inwardly rectifying potassium channel KCNH2 (Homo sapiens, UniProt Q12809); experiment: Inhibition of human ERG
physchem [20] = details: aqueous phosphate buffer, pH 7.4
Description: Solubility of the compound in aqueous phosphate buffer at pH 7.4 at 25 degC after 24 hrs

Chain of Voltage-gated inwardly rectifying potassium channel KCNH2 (Q12809 whole entry): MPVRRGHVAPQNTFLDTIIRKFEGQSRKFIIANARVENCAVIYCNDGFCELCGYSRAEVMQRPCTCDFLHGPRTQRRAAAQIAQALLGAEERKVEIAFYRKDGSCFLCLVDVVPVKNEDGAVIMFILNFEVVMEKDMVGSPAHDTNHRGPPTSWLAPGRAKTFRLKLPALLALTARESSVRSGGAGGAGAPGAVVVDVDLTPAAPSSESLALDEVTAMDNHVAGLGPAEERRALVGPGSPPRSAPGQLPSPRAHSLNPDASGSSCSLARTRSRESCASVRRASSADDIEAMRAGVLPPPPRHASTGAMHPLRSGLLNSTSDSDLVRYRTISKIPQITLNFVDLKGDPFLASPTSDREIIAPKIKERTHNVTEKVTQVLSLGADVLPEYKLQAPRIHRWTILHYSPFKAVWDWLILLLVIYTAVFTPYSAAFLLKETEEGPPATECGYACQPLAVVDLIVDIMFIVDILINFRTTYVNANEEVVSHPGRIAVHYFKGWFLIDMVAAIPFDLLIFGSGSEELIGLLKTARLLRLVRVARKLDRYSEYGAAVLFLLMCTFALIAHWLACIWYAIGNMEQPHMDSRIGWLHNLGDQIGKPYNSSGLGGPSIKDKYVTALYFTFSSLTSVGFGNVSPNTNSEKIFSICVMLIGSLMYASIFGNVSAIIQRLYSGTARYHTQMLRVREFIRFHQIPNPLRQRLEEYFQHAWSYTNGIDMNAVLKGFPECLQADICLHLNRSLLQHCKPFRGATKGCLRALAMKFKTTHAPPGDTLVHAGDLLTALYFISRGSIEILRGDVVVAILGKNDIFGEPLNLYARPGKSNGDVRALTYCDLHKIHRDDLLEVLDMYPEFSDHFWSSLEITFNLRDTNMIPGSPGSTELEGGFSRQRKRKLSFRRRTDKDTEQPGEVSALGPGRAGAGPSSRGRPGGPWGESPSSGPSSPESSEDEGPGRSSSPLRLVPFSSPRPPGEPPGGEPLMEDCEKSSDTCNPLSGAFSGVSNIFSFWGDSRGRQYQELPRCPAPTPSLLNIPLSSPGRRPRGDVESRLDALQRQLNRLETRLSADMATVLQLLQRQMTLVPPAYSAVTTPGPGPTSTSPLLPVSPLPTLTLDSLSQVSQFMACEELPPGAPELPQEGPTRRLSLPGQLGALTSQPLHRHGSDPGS

SMILES | logP [1] | hepatocyte CLint [2] [µL/min/1e6 cells] | microsomal CLint [3] [µL/min/mg] | Papp A→B [4] [×10⁻⁶ cm/s] | Papp B→A [5] [×10⁻⁶ cm/s] | Stability [6] | Stability [7] | Stability [8] | half-life at 10 µM [9] [h] | half-life at 10 µM [10] [h] | half-life at 10 µM [11] [h] | half-life at 10 µM [12] [h] | half-life at 10 µM [13] [h] | half-life at 10 µM [14] [h] | logD (physchem [15]) | fraction unbound [16] | fraction unbound [17] | fraction unbound [18] | IC50 [19] [µM] | solubility at 24 h (physchem [20]) [µM]
CC(C)c1nc(N2CCN(c3ncc(OCc4ccncc4C#N)cn3)[C@H](C)C2)no1 | 1.3 | 70 | 48 | 15 | 6 | Stable | Stable | Stable |  |  |  |  |  |  |  |  |  |  |  | 
C[C@@H]1CN(c2noc(C(F)(F)F)n2)CCN1c1ncc(OCc2ccncc2C#N)cn1 | 2.9 | 42 | 28 | 23 | 6 | Unstable | Unstable | Unstable | 6.96 | 8.64 | 2.88 | 137 | 214 | 127 |  |  |  |  |  | 
C[C@@H]1CN(c2noc(C(F)F)n2)CCN1c1ncc(OCc2ccncc2C#N)cn1 | 1.4 |  |  |  |  | Stable | Stable | Stable |  |  |  |  |  |  | 2.8 |  |  |  |  | 
CC(C)c1noc(N2CCN(c3ncc(OCc4ccncc4C#N)cn3)[C@H](C)C2)n1 |  | 72 | 55 |  |  | Stable | Stable | Stable |  |  |  |  |  |  |  |  |  |  |  | 
C[C@@H]1CN(c2nc(C(F)(F)F)no2)CCN1c1ncc(OCc2ccncc2C#N)cn1 | 1.4 | 52 | 40 | 13 | 6 | Stable | Stable | Stable |  |  |  |  |  |  |  |  |  |  |  | 
CC(C)c1nnc(N2CCN(c3ncc(OCc4ccncc4C#N)cn3)[C@H](C)C2)o1 | -0.5 | 63 | 47 | 16 | 13 | Stable | Stable | Stable |  |  |  |  |  |  | 2.6 | 0.071 | 0.131 | 0.087 | > 28 | 150 (≈ 63.1 µg/mL)
C[C@@H]1CN(c2nnc(C(F)(F)F)o2)CCN1c1ncc(OCc2ccncc2C#N)cn1 | 0.5 | 53 | 34 | 18 | 21 | Stable | Stable | Stable |  |  |  |  |  |  | 2.7 |  |  |  |  | 
